In the assay the target is T1, human recombinant P2X7 receptors (Homo sapiens, UniProt Q99572).
T1 construct: expressed in transfected cells
T1 sequence (Q99572 1-595): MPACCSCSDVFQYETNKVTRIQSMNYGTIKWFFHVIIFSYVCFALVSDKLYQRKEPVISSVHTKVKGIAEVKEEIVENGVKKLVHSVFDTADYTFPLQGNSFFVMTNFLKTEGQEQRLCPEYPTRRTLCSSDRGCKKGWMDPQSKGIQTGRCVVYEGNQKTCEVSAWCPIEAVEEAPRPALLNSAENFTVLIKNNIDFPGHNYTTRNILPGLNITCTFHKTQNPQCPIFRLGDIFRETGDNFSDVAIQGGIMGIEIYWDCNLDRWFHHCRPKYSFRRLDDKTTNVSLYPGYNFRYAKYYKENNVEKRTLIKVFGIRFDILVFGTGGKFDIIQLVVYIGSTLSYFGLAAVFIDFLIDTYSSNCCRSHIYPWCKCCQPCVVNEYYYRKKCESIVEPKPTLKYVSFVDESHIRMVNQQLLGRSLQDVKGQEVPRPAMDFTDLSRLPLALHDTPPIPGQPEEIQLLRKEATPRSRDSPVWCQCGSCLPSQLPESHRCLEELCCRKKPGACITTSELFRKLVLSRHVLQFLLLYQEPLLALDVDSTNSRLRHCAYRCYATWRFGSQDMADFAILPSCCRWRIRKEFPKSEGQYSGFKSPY
Kind of assay: Ethidium Accumulation Assay 1 (HEK293 cells, ATP-induced ethidium uptake). It counts as cell-based. To be noted: HEK293 cells expressing human P2X7; 1 mM ATP; sometimes mean of more than one measurement; read-out: Assay 1 (antagonist pIC50 for blocking ATP responses) (converted).

Some results are limits rather than exact numbers.

The record followed here is patent US8501946B2 (Glaxo Group Limited, priority 2009, dated 2013).

For the compound `O=C(c1cccc(C(F)(F)F)c1F)N1CCn2c(Br)nnc2C1` [Example 9, 3-bromo-7-{[2-fluoro-3-(trifluoromethyl)phenyl]carbonyl}-5,6,7,8-tetrahydro[1,2,4]triazolo [4,3-a]pyrazine], the IC50 is < 100 nM. The value for `O=C(c1ccc(F)cc1Cl)N1CCn2c(nnc2-c2cccc(Cl)c2Cl)C1` [Example 130, 7-[(2-chloro-4-fluorophenyl)carbonyl]-3-(2,3-dichlorophenyl)-5,6,7,8-tetrahydro[1,2,4]triazolo[4,3-a]pyrazine] was < 100 nM; that for `O=C(c1cccc(C(F)(F)F)c1Cl)N1CCn2c(nnc2-c2ccc(F)cc2F)C1` [Example 24, 7-{[2-Chloro-3-(trifluoromethyl)phenyl]carbonyl}-3-(2,4-difluorophenyl)-5,6,7,8-tetrahydro[1,2,4]triazolo[4,3-a]pyrazine] was < 100 nM.

For `Cc1nc(-c2nnc3n2CCN(C(=O)c2ccc(F)cc2Cl)C3)cs1` [Example 136, 7-[(2-chloro-4-fluorophenyl)carbonyl]-3-(2-methyl-1,3-thiazol-4-yl)-5,6,7,8-tetrahydro[1,2,4]triazolo[4,3-a]pyrazine], the IC50 was < 501 nM.

As to `O=C(c1ccccc1Cl)N1CCn2c(nnc2-c2cnccn2)C1` [Example 120, 7-[(2-chlorophenyl)carbonyl]-3-(2-pyrazinyl)-5,6,7,8-tetrahydro[1,2,4]triazolo[4,3-a]pyrazine], the IC50 is < 100 nM. For `COc1ccccc1-c1nnc2n1CCN(C(=O)c1ccc(F)cc1Cl)C2` [Example 127, 7-[(2-chloro-4-fluorophenyl)carbonyl]-3-[2-(methyloxy)phenyl]-5,6,7,8-tetrahydro[1,2,4]triazolo[4,3-a]pyrazine] the value was < 501 nM. The value for `Cn1ccc(-c2nnc3n2CCN(C(=O)c2cccc(Cl)c2Cl)C3)n1` [Example 63, 7-[(2,3-dichlorophenyl)carbonyl]-3-(1-methyl-1H-pyrazol-3-yl)-5,6,7,8-tetrahydro[1,2,4]triazolo [4,3-a]pyrazine] was < 10 nM. The value for `O=C(c1ccc(F)cc1Cl)N1CCn2c(nnc2-c2cnc(Cl)cn2)C1` [Example 141, 7-[(2-Chloro-4-fluorophenyl)carbonyl]-3-(5-chloro-2-pyrazinyl)-5,6,7,8-tetrahydro[1,2,4]triazolo[4,3-a]pyrazine] was < 501 nM; that for `Cc1cccnc1-c1nnc2n1CCN(C(=O)c1ccc(F)cc1Cl)C2` [Example 32, 7-[(2-chloro-4-fluorophenyl)carbonyl]-3-(3-methyl-2-pyridinyl)-5,6,7,8-tetrahydro[1,2,4]triazolo[4,3-a]pyrazine] was < 100 nM; that for `O=C(c1ccc(F)cc1Cl)N1CCn2c(nnc2-c2cnccn2)C1` [Example 85, 7-[(2-chloro-4-fluorophenyl)carbonyl]-3-(2-pyrazinyl)-5,6,7,8-tetrahydro[1,2,4]triazolo[4,3-a]pyrazine] was < 10 nM. `Cn1cccc1-c1nnc2n1CCN(C(=O)c1cccc(C(F)(F)F)c1Cl)C2` [Example 29, 7-{[2-chloro-3-(trifluoromethyl)phenyl]carbonyl}-3-(1-methyl-1H-pyrrol-2-yl)-5,6,7,8-tetrahydro[1,2,4]triazolo [4,3-a]pyrazine]: the IC50 is < 10 nM.

Turning to `O=C(c1cccc(C(F)(F)F)c1F)N1CCn2c(nnc2-c2ccccn2)C1` [Example 91, 7-{[2-fluoro-3-(trifluoromethyl)phenyl]carbonyl}-3-(2-pyridinyl)-5,6,7,8-tetrahydro[1,2,4]triazolo [4,3-a]pyrazine], the IC50 is < 10 nM. In the case of `O=C(c1ccc(F)cc1Cl)N1CCn2c(nnc2-c2cccnn2)C1` [Example 59, 7-[(2-chloro-4-fluorophenyl)carbonyl]-3-(3-pyridazinyl)-5,6,7,8-tetrahydro[1,2,]triazolo [4,3-a]pyrazine], the IC50 is < 501 nM.

Take `O=C(c1ccccc1Cl)N1CCn2c(nnc2-c2ccco2)C1` [Example 117, 7-[(2-chlorophenyl)carbonyl]-3-(2-furanyl)-5,6,7,8-tetrahydro[1,2,4]triazolo[4,3-a]pyrazine]: the IC50 was < 10 nM.
